Data on six compounds can be found in patent US20170266182A1, “Treatment of IgG-Immune Complex-Mediated Organ Damage” (The Brigham and Women's Hospital, Inc., priority 2014, published 2017).

For data set [1], the system named is FcγRIIA. The experiment in a line: Immobilized immune complex (IC)-induced ROS generation in FcγRIIA+/γ-/- mouse bone marrow neutrophils (high-throughput screen). It counts as cell-based. To be noted: for ROS RLU ratio: compound at 1.1 μM, mouse BMN ROS induced by immobilized IC. The protocol: Screen of 8,483 compounds was done in collaboration with the Institute of Chemistry and Cell Biology Screening facility at Harvard Medical School (ICCB/Longwood). Each compound was dissolved in DMSO at a concentration of […]. For the primary screen, wells were coated with immune complexes as follows: 0.1 mg/mL poly-L-lysine (Sigma) followed by 2.5% glutaraldehyde were dispensed onto 384-well format black plate (Corning), and the plate was washed once with DDW and twice with PBS, incubated with 100 μL 1 mg/ml bovine serum albumin (BSA) followed by 100 μL 40 μg/mL rabbit anti-BSA antibody to generate in situ immune complexes (IC). Mature murine neutrophils isolated from the bone marrow of FcγRIIA+/γ^-/- mice as previously described, were suspended in 100 uM homovanillic acid/5 U/ml peroxidase IV (Sigma)/1 mM EDTA/HBSS (Thermo) assay solution (pH 7.5) and 3×10^4 cells in 30 μL were loaded per well into a 384-well format plate using a Wellmate automated dispenser (Thermo Scientific). Immediately after dispensing cells, ICCB library compounds dissolved in 33 nL DMSO were dispensed into wells using a Compound Transfer Robot (Epson). The plates were placed in a humidified incubator at 37 C for 60 mins and then fluorescence levels were read out at Ex/Em 321/421 nm with Envision2 (PerkinElmer). PP2 (Sigma), a Src inhibitor known to down-regulate FcγRIIA signal, and DMSO were used as positive and negative control, respectively. All the experiments were performed in duplicate.
An automated high-throughput drug screen in primary neutrophils from mice expressing FcγRIIA on neutrophils and lacking all their endogenous activating murine FcγRs (FcγRIIA^+/γ^-/-) was established to identify compounds that inhibit the activity of FcγRIIA. Immune complex (IC)-induced reactive oxygen species (ROS) generation served as our read-out of FcγRIIA activity. An appropriate positive (PP2, an inhibitor of the FcγR proximal Src-family kinase) and negative (DMSO, vehicle) control was included in the assay. The screen of 8,483 compounds, used at 10 μM in DMSO, yielded 84 hits (1% hit rate) that were defined as those that have an inhibitory potential that is ≧95% of PP2 (FIG. 1A). Of the 30 compounds cherry picked for a secondary screen, ten compounds were identified as having an ability to inhibit neutrophil FcyRIIA induced ROS generation at even lower concentrations (i.e., 1.1 μM or less) (Table 1).

Data set [2] concerns neutrophils. Description: Cell viability by Annexin V and propium iodide. It counts as cell-based. To be noted: range of concentrations.
Data set [3] concerns FcγRIIA+/γ-/-/Mac-1-/- mice. The experiment in a line: Human lupus serum induced kidney injury model. It counts as in vivo, mouse. As for the experimental part: Human serum samples were obtained from the Lupus Clinic at the Beth Israel Deaconess Medical Center from patients with SLE diagnosed according to the classification criteria of the American College of Rheumatology as previously described^13. Informed consent was obtained from all patients and healthy donors under a Beth Israel Deaconess Medical Center Institutional Review Board-approved protocol. FcγRIIA+/γ^-/-/Mac1-mice were injected s.c. in both flanks with 2.5 μg human IgG (Jackson ImmunoResearch Laboratories) in CFA (Thermo Scientific and Difco) on day-3. On days 0 and 2, 200 μl sterile serum was injected i.v. The mice were given an oral administration of Bosutinib (150 mg/kg) or a vehicle solution every 24 hrs from day 0 to 14. Spot urine samples and peripheral blood were collected at indicated time points after human serum injection. Both kidneys from euthanized mice were harvested for histological analysis at day 10 or 14. […]

The conditions of data set [4]: mice, gavage; cited from earlier work.
Data set [5] has as its system FcγRIIA. Description: FcγRIIA cross-linking induced ROS generation in FcγRIIA+/γ-/- mouse BMNs (luminol). To be noted: 100 nM, FIG. 4A. It counts as cell-based. As for the experimental part: 10^6 BMNs were suspended in PBS without Ca^2+/Mg^2+, and then incubated with 10 μg/ml mouse anti-hFcγRIIa (clone IV.3; StemCell Technologies) on ice for 30 minutes. After washing in PBS, cells were incubated with or without 500 ng/ml mGM-CSF (BioLegend) for 30 minutes. After pretreated with Bosutinib at indicated concentrations or DMSO at 37 C for 30 minutes, luminol (50 μM) in PBS with Ca^2+/Mg^2+ was added, followed immediately by the addition of goat anti-mouse F(ab′)2 (36 μg/ml; Jackson ImmunoResearch). ROS generation (expressed in relative light units) was continuously monitored over time using a 6-channel bioluminat LB-953 luminometer (Berthold). For human PMNs, 5×10^5 cells were analyzed without GM-CSF pretreatment.

Regarding `Cc1n[nH]c2ccc(-c3cncc(OC[C@@H](N)Cc4c[nH]c5ccccc45)c3)cc12` [A-443654], the “ROS RLU ratio” value in data set [1] was determined as 0.266.

The term IC50 denotes the midpoint of a concentration-inhibition curve. Turning to `COc1cc(Nc2c(C#N)cnc3cc(OCCCN4CCN(C)CC4)c(OC)cc23)c(Cl)cc1Cl` [Bosutinib], in data set [1], the “ROS RLU ratio” value is listed as 0.033. The IC50 in data set [1] (mouse BMNs, FIG. 1C) is roughly 50 nM. Also, the Cell viability result in data set [2] is “did not affect cell viability”. Moreover, in data set [3] (hemocytometric analysis, day 14), the “Total leukocyte and neutrophil counts versus vehicle” value is “comparable”. In data set [3] (peripheral blood, day 14, AVE), the Hb was found to be 7.98 g/dL, the Neu % was found to be 25.64%, the Neu total came to 0.7506 K/ul and the Plt total is 949.8 K/ul. In data set [3] (peripheral blood, day 14, AVE), this compound came in with an RBC of 7.98 M/ul and a WBC total of 2.656 K/ul. The “Time of peak blood concentration” value in data set [4] was 2 to 4 h.

In the case of `CN(C)CCCn1cc(C2=C(c3c[nH]c4ccccc34)C(=O)NC2=O)c2ccccc21` [GF109203X], the “ROS RLU ratio” value in data set [1] was determined as 0.338.

In the case of `Cc1cn(-c2cc(NC(=O)c3ccc(C)c(Nc4nccc(-c5cccnc5)n4)c3)cc(C(F)(F)F)c2)cn1` [Nilotinib], in data set [5], the “Neutrophil ROS generation induced by FcγRIIA cross linking” value is “reduced” and the “Potency compared to Bosutinib in FcγRIIA cross linking ROS” value is “lower”.

As to `CN(c1ccccc1CNc1nc(Nc2ccc3c(c2)CC(=O)N3)ncc1C(F)(F)F)S(C)(=O)=O` [PF431396], in data set [1], the “ROS RLU ratio” value amounted to 0.301.

In the case of `Cn1cc(C2=C(c3cn(CCCSC(=N)N)c4ccccc34)C(=O)NC2=O)c2ccccc21` [Ro 31-8220], the “ROS RLU ratio” value in data set [1] was 0.778.
